Legend:
MTT cell viability assay = assay type: cell-based; conditions: human
Protocol: Human neuroblastoma SH-SY5Y cells with inducible ΔK280 TauRD-DsRed expression were maintained in DMEM/F-12 supplemented with fetal bovine serum (FBS, 10%) (Thermo Scientific, Waltham, MA, USA), penicillin/streptomycin (100 U/mL), selection antibiotics hygromycin (100 μg/mL) and blasticidin (5 μg/mL) (InvivoGen, San Diego, CA, USA), and 1.5 g/l sodium bicarbonate. Cells were cultured at 37 °C in a 5% CO2 atmosphere. The cell viability of ZN and VB compounds (concentration range: 0.1–100 μM) was evaluated by a 3-(4,5-dimethylthiazol-2-yl)-2,5-diphenyltetrazolium bromide (MTT; Sigma-Aldrich) colorimetric assay. The absorbance at 570 nm was recorded by a Multiskan™ GO Microplate Spectrophotometer (Thermo Scientific).

[1] = tested on: ΔK280 TauRD-DsRed SH-SY5Y cells; experiment: High-content neurite outgrowth analysis (TUBB3 stain); assay type: cell-based, human; conditions: 10 μM
Protocol: ΔK280 TauRD-DsRed SH-SY5Y cells were plated in the presence of 10 μM retinoid acid (RA; Sigma-Aldrich) to promote neuronal differentiation. The next day, cells were added with congo red or ZN/VB compounds (2–10 μM) for 8 h pretreatment, followed by inducing ΔK280 TauRD-DsRed expression with doxycycline (2 μg/mL). On day 8, cell nuclei were stained with Hoechst 33342 (0.1 μg/mL; Thermo Scientific), and cell images acquired using ImageXpress Micro Confocal High-Content Imaging System (Molecular Devices, San Jose, CA, USA) with DAPI (4′,6-diamidino-2-phenylindole, for nuclei) and TRITC (tetramethylrhodamine, for DsRed) fluorescence filter sets. To detect ROS changes, 10 μM compound-treated cells were stained with Hoechst 33342 and 2′,7′-dichlorodihydrofluorescein diacetate (H2DCFDA, 10 μM) fluorescein (Invitrogen, Carlsbad, CA, USA), and cell images captured using DAPI and FITC (fluorescein isothiocyanate, for DCF) filters. For assessing differential neurite outgrowth, 10 μM compound-treated cells were fixed (paraformaldehyde, 4%), permeabilized (Triton X-100, 0.3%), and stained with class III β-tubulin (TUBB3, 1:1000) primary antibody (#802001, BioLegend, San Diego, CA, USA), followed by donkey anti-rabbit Alexa Fluor® 555 secondary antibody (1:1000; #A-31572, Invitrogen) and DAPI (0.1 μg/mL; Sigma-Aldrich) stains. The nuclei and neurite images were acquired with DAPI and TRITC fluorescence filters, respectively. All analyses of images were performed using MetaXpress software (Molecular Device).

[2] = target: T1, TRKB extracellular domain (TRKB-ECD) (Homo sapiens, UniProt Q16620); experiment: Tryptophan fluorescence quenching assay; conditions: Pichia pastoris-expressed TRKB-ECD, 0–1000 nM, excitation 295 nm, emission 330 nm, room temperature; read-out: KD (TRKB-ECD binding affinity)
T1 construct: TRKB-ECD (marked in red, C^32-E^429, XP_016870240); His (C); made in house; host or cells: Pichia pastoris
Protocol: The interaction between the N-terminal extracellular domain of TRKB (TRKB-ECD) and 7,8-DHF (as positive control; [35]), ZN-015, VB-030 or VB-037 was evaluated with tryptophan fluorescence titration. TRKB-ECD-His protein was expressed in the Pichia expression system (Invitrogen) and purified as stated. Intrinsic tryptophan fluorescence spectra with titration of a different concentration of compounds (0–1000 nM) were recorded by fluorescence spectrophotometer F-7000 (Hitachi, Tokyo, Japan), with excitation wavelength 295 nm and emission wavelength in the range of 300–400 nm. The calculation of dissociation constant (KD) between the 7,8-DHF or ZN/VB compound and TRKB was described in a previous report.

T1 sequence (Q16620 32-429): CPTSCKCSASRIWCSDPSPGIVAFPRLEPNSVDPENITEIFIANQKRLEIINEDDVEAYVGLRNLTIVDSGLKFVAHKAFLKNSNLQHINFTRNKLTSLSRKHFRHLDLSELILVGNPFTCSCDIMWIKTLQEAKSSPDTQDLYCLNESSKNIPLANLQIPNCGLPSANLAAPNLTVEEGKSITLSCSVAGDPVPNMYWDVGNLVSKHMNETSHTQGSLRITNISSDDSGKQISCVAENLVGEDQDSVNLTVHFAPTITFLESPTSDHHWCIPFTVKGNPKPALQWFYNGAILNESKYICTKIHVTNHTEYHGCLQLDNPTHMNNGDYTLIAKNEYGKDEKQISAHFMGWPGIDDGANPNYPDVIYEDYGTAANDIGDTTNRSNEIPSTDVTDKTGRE

SMILES: O=C(/C=C/c1ccccc1O)c1c(O)c2ccccc2oc1=O [ZN-015, (E)-4-hydroxy-3-(3-(2-hydroxyphenyl)acryloyl)-2H-chromen-2-one]
- IC50 at 24 h (MTT cell viability assay): 77 µM
- neurite branch ([1]; induced untreated 0.74): 0.92
- neurite process ([1]; induced untreated 2.07): 2.34
- neurite length ([1]; induced untreated 30.6 μm): 40.7 μm
- Kd [2]: 0.0122 ± 0.0094 µM

From publication PMC9953660, “Using ΔK280 TauRD Folding Reporter Cells to Screen TRKB Agonists as Alzheimer’s Disease Treatment Strategy” (Biomolecules, 2023)
